This note sets out measurements from US20040092571A1, “Pharmaceutical composition” (SANKYO COMPANY, LIMITED, priority 2000, published 2004).

Counter-ions that a name gives are not always drawn.

One assay deals with F1b hamsters. As to the kind of experiment: Lipid lowering action in cholesterol/coconut oil-fed F1b hamsters (serum lipids by an enzyme method). It is filed as in vivo, hamster. Particulars: for Cholesterol concentration TC (total cholesterol) / Atherogenic index (VLDL+LDL cholesterol/HDL cholesterol) / Cholesterol concentration HDL / Cholesterol concentration VLDL + LDL: serum, oral once a day for 7 days, Pravastatin 3 mg/kg, Compound A 30 mg/kg; for Cholesterol concentration TC (total cholesterol): 17 h fast after final dose, control 253.0; for Atherogenic index (VLDL+LDL cholesterol/HDL cholesterol): control 3.0; for Cholesterol concentration HDL: control 63.6; for Cholesterol concentration VLDL + LDL: control 189.4. As to the method: Eleven-week-old male F1b hamsters were used in the experiment. The animals were fed in metal cages and allowed free access to food, which contained 0.05% cholesterol and 10% coconut oil, and water. The active agents were administered orally in the form of a suspension in 5% gum arabic solution once a day for 7 days. The animals were fasted for 17 hours after the final administration of active agents at which time blood samples were collected under anesthesia. Serum lipids were measured by an enzyme method. In the table, TC indicates total cholesterol, VLDL indicates very low density lipoprotein, LDL indicates low density lipoprotein, HDL indicates high density lipoprotein and compound A indicates N-(1-octyl-5-carboxymethyl-4,6-dimethylindolin-7-yl)-2,2-dimethylpropanamide sulfate.

The subject of the next assay is cholesterol-fed rabbits. Description: Effect on the development of atherosclerotic lesion in cholesterol-fed rabbits with chronic endothelial injury. It is filed as in vivo, New Zealand White rabbits. The conditions noted are these: for Effect on ECD (in words) / Effect on atheroclerotic area of the femoral lesion (in words): Table 2; for The ratio of Atheroclerotic area: femoral artery, oral for 8 weeks after surgery, control 57.4; for The ratio of Atheroclerotic area / ECD (extracellular lipid deposits): Pravastatin 10 mg/kg, Compound A 5 mg/kg; for ECD (extracellular lipid deposits): right femoral artery sections, Elastica-Masson's stain, oral for 8 weeks, control 15.5. From the text: Male New Zealand White rabbits (Kitayama Labes, Japan) weighing 1.0-1.5 kg were meal-fed a chow diet (RC-4, Oriental Bioservice, Japan) supplemented with 0.5% cholesterol, 3% peanut oil, and 3% coconut oil diet for a total of 10 weeks.
The dietary regimen consisted of feeding the cholesterol/fat diet at 40 g for the first 2 weeks, 50 g for 4 weeks, 60 g for final 4 weeks. After 2 week of diet initiation, a chronic endothelial injury was induced in the abdominal aorta and right femoral artery by surgically inserting a sterile, nylon monofilament through the medical saphenous artery of the right leg to the level of the diaphragm. The monofilament was secured and maintained in place for remaining 8 weeks of the study. Animals were randomized on the basis of their total cholesterol levels after 2 week of cholesterol/fat diet. The HMG-CoA reductase inhibitor and the ACAT inhibitor were orally administered both alone and in combination for 8 weeks after surgery.
Femoral artery was photographed for the morphometric analyses by digital camera (Coolpix 990, trade name: product of […].) connected with a computer. The severity of aortic atherosclerosis was estimated as a ratio of surface area of lesion to the intimal surface area of aorta by Photo-retouch software (“Adobe Photoshop 5.0” trade name: product of Adobe Systems Inc.) and the Scion image NIH Imaging Software (“Scion Image 1.61 c MacOs” product of Scion Corporation). (ii) Extracellular Lipid Deposits
Rabbits were anesthetized with intravenous injection of sodium pentobarbital (25 mg/kg) and perfused with saline by using a perfusion apparatus at a constant pressure of 100 mmHg. After perfusion, the aortas were excised, photographed. Analysis of lesional cross-sections on aortas was examined at the right femoral artery. Right femoral artery was fixed in Methanol Carnoy's fixative for at least 24 hours. The segments were embedded in paraffin, and sectioned at 5 μm. Five ribbons of four serilal sections from each segment were cut at 80 μm intervals. A section from each ribbon was treated with Elastica-Masson's stain.
Digital image of each section was collected using a digital camera (Fujix CCD camera system HC-2500: product of Fuji Photo Film Co., Ltd.) attached to Leica microscope at a magnification of 2.5×. The area of each lesional component was extracted using Adobe Photoshop 5.0 (Adobe) for estimation of the quality of the lesions. In sections treated with Elastica-Masson's stain, the region with light green were identified as extracellular matrix (ECM), and extracellular vacuoles and lacunae (white regions) were defined as extracellular lipid deposits (ECD). ECD was measured by average of value dividing area of lesional component by area of lesion using Adobe Photoshop 5.0 and Scion Image 1.61 MacOs.

Turning to `CC[C@H](C)C(=O)O[C@H]1C[C@H](O)C=C2C=C[C@H](C)[C@H](CC[C@@H](O)C[C@@H](O)CC(=O)O)[C@H]21` [Pravastatin, (+)-(3R,5R)-3,5-dihydroxy-7-[(1S,2S,6S,8S,8aR)-6-hydroxy-2-methyl-8-[(S)-2-methylbutyryloxy]-1,2,6,7,8,8a-hexahydro-1-napthyl]heptanoic acid, reference compound], in the assay on F1b hamsters, the “Cholesterol concentration TC (total cholesterol)” value is listed as 244.0, the “Atherogenic index (VLDL+LDL cholesterol/HDL cholesterol)” value was 2.3, the “Cholesterol concentration HDL” value worked out at 73.3 and the “Cholesterol concentration VLDL + LDL” value was determined as 170.6. In addition, in the assay with cholesterol-fed rabbits, the “Effect on ECD (in words)” value is given as “no effect”, the “Effect on atheroclerotic area of the femoral lesion (in words)” value was “no effect”, the “The ratio of Atheroclerotic area” value is recorded as 58.3% and the “ECD (extracellular lipid deposits)” value turned out to be 16.6 mm^2.
Take `CCCCCCCCN1CCc2c(C)c(CC(=O)O)c(C)c(NC(=O)C(C)(C)C)c21` [Compound A, N-(1-octyl-5-carboxymethyl-4,6-dimethylindolin-7-yl)-2,2-dimethylpropanamide sulfate]: in the assay on F1b hamsters, the “Cholesterol concentration TC (total cholesterol)” value is given as 170.9, the “Atherogenic index (VLDL+LDL cholesterol/HDL cholesterol)” value was 1.8, the “Cholesterol concentration HDL” value was 62.0 and the “Cholesterol concentration VLDL + LDL” value is on record as 109.0. Further, in the assay with F1b hamsters (summary of Table 1), the “Effect on atherogenic index (in words)” value was “lowered”, the “Effect on serum VLDL+LDL cholesterol level (in words)” value is listed as “decreased” and the “Effect on total serum cholesterol level (in words)” value is reported as “decreased”. In the assay on cholesterol-fed rabbits, the “Effect on ECD (in words)” value is “reduced”, the “Effect on atheroclerotic area of the femoral lesion (in words)” value is listed as “reduced”, the “The ratio of Atheroclerotic area” value stood at 45.8% and the “ECD (extracellular lipid deposits)” value is given as 10.7 mm^2.
